Columns and labels:
Assay type in all cases: in vivo
[1] = system: redroot pigweed (Amaranthus retroflexus, AMARE); test: Pre-emerge test, greenhouse herbicide activity screening; conditions: rating scale 0-100, 14 days after application
Source text: (§1) A standard greenhouse herbicide activity screening system was used to evaluate the herbicidal efficacy and crop safety of these test compounds. Seven broadleaf weed species including redroot pigweed (Amaranthus retroflexus, AMARE, velvetleaf (Abutilon theophrasti, ABUTH), sicklepod (Cassia obtusifolia, CASOB), ivyleaf morningglory (Ipomoea hederacea, IPOHE), lambsquarters (Chenopodium album, CHEAL), common ragweed (Ambrosia artemisizfolia L., AMBEL), and cocklebur (Xanthium strumarium, XANST) were used as test species. Four grass weed species including green foxtail (Setaria viridis, SETVI), barnyardgrass (Echinochloa crus-galli, ECHCG), johnsongrass (Sorghum halepense, SORHA), and large crabgrass (Digitaria sanguinalis, DIGSA) were also used. In addition, three crop species, field corn (Zea mays L., var. Dekalb 535, CORN), soybean (Glycine max L., var. Pella 86, SOY), and is upland rice (Oryza sp., var. Tebonnet, RICE) were included.
(§2) All plants were grown in 10 cm square plastic pots which were filled with a sandy loam soil mix. For pre-emerge tests, seeds were planted one day prior to application of the test compounds. For post-emerge tests, seeds were planted 8-21 days prior to the test to allow emergence and good foliage development prior to application of the test substances. At the time of the post-emerge application, plants of all species were usually at the 2-3 leaf stage of development.
All test compounds Were dissolved in acetone and applied to the test units in a volume of 187 l /ha. […] Plants were arranged on a shelf so that the top of the canopy (post-emerge) or top of the soil surface (pre-emerge) was 40-45 cm below the nozzle. Pressurized air was used to force the test solution through the nozzle as it was mechanically advanced (via electrically driven chain drive) over the top of all test plants/pots. This application simulates a typical commercial field herbicide application.
(§3) In the post-emerge test, a commercial non-ionic surfactant was also included (0.25% v/v) to enhance wetting of the leaf surfaces of target plants. Immediately after application, test units of the pre-emerge applications were watered at the soil surface to incorporate the test materials. Subsequently, these test units were bottom-watered. Post-emerge test units were always bottom-watered.
(§4) At 14 days after application of the test materials, phytotoxicity ratings were recorded. A rating scale of 0-100 was used as previously described in Research Methods in Weed Science, 2nd edition, B. Truelove, Ed., Southern Weed Science Society, Auburn University, Auburn, Ala. 1977. Briefly, “0” corresponds to no damage and “100” corresponds to complete death of all plants in the test unit. This scale was used both to determine efficacy against weed species and damage to crop species. Herbicide activity data for various compounds of this invention, which are shown by compound No. in Tables 1-8, are shown in Tables 11 and 12.

[2] = system: barnyardgrass (Echinochloa crus-galli, ECHCG); test: as above; conditions: rating scale 0-100, 14 days after application
Source text: as §1, §2
(§5) All test compounds Were dissolved in acetone and applied to the test units in a volume of 187 l /ha. Test materials were applied at rates ranging from 15 g ai/ha to 1000 g ai/ha using a track sprayer equipped with a TJ8001E even flow flat fan spray nozzle. Plants were arranged on a shelf so that the top of the canopy (post-emerge) or top of the soil surface (pre-emerge) was 40-45 cm below the nozzle. Pressurized air was used to force the test solution through the nozzle as it was mechanically advanced (via electrically driven chain drive) over the top of all test plants/pots. This application simulates a typical commercial field herbicide application.
as §3, §4

[3] = system: green foxtail (Setaria viridis, SETVI); test: as above; conditions: rating scale 0-100, 14 days after application
Source text: as §1, §2, §5, §3, §4

[4] = system: ivyleaf morningglory (Ipomoea hederacea, IPOHE); test: as above; conditions: rating scale 0-100, 14 days after application
Source text: as §1, §2, §5, §3, §4

[5] = system: lambsquarters (Chenopodium album, CHEAL); test: as above; conditions: rating scale 0-100, 14 days after application
Source text: as §1, §2, §5, §3, §4

[6] = system: large crabgrass (Digitaria sanguinalis, DIGSA); test: as above; conditions: rating scale 0-100, 14 days after application
Source text: as §1, §2, §5, §3, §4

[7] = system: sicklepod (Cassia obtusifolia, CASOB); test: as above; conditions: rating scale 0-100, 14 days after application
Source text: as §1, §2, §5, §3, §4

[8] = system: velvetleaf (Abutilon theophrasti, ABUTH); test: as above; conditions: rating scale 0-100, 14 days after application
Source text: as §1, §2, §5, §3, §4

[9] = system: barnyardgrass (Echinochloa crus-galli, ECHCG); test: Post-emerge test, greenhouse herbicide activity screening; conditions: rating scale 0-100 (0 no damage, 100 complete death), 14 days after application
Source text: as §1, §2, §5, §3, §4

[10] = system: green foxtail (Setaria viridis, SETVI); test: as above; conditions: rating scale 0-100 (0 no damage, 100 complete death), 14 days after application
Source text: as §1, §2, §5, §3, §4

[11] = system: ivyleaf morningglory (Ipomoea hederacea, IPOHE); test: as above; conditions: rating scale 0-100 (0 no damage, 100 complete death), 14 days after application
Source text: as §1, §2, §5, §3, §4

[12] = system: lambsquarters (Chenopodium album, CHEAL); test: as above; conditions: rating scale 0-100 (0 no damage, 100 complete death), 14 days after application
Source text: as §1, §2, §5, §3, §4

[13] = system: large crabgrass (Digitaria sanguinalis, DIGSA); test: as above; conditions: rating scale 0-100 (0 no damage, 100 complete death), 14 days after application
Source text: as §1, §2, §5, §3, §4

[14] = system: redroot pigweed (Amaranthus retroflexus, AMARE); test: as above; conditions: rating scale 0-100 (0 no damage, 100 complete death), 14 days after application
Source text: as §1, §2, §5, §3, §4

[15] = system: sicklepod (Cassia obtusifolia, CASOB); test: as above; conditions: rating scale 0-100 (0 no damage, 100 complete death), 14 days after application
Source text: as §1, §2, §5, §3, §4

[16] = system: velvetleaf (Abutilon theophrasti, ABUTH); test: as above; conditions: rating scale 0-100 (0 no damage, 100 complete death), 14 days after application
Source text: as §1, §2, §5, §3, §4

CCOC(=O)C(Cl)Cc1c(OC)c(Cl)cc(F)c1-n1c(=O)cc(C(F)(F)F)n(C)c1=O (single isomer, unassigned) [Compound 14-4, 3-{4-chloro-2-[2-chloro-2-(ethoxycarbonyl)ethyl]-6-fluoro-3-methoxyphenyl}-1-methyl-6-trifluoromethyl-2,4(1H, 3H)-pyrimidinedione]
Pre-emerge herbicidal activity, phytotoxicity rating AMARE ([1]; 63 g ai/ha): 90 | Pre-emerge herbicidal activity, phytotoxicity rating AMARE ([1]; 250 g ai/ha): 100 | Pre-emerge herbicidal activity, phytotoxicity rating ECHCG ([2]; 63 g ai/ha): 0 | Pre-emerge herbicidal activity, phytotoxicity rating ECHCG ([2]; 250 g ai/ha): 0 | Pre-emerge herbicidal activity, phytotoxicity rating SETVI ([3]; 63 g ai/ha): 10 | Pre-emerge herbicidal activity, phytotoxicity rating SETVI ([3]; 250 g ai/ha): 40 | Pre-emerge herbicidal activity, phytotoxicity rating IPOHE ([4]; 63 g ai/ha): 0 | Pre-emerge herbicidal activity, phytotoxicity rating IPOHE ([4]; 250 g ai/ha): 70 | Pre-emerge herbicidal activity, phytotoxicity rating CHEAL ([5]; 63 g ai/ha): 60 | Pre-emerge herbicidal activity, phytotoxicity rating CHEAL ([5]; 250 g ai/ha): 100 | Pre-emerge herbicidal activity, phytotoxicity rating DIGSA ([6]; 63 g ai/ha): 20 | Pre-emerge herbicidal activity, phytotoxicity rating DIGSA ([6]; 250 g ai/ha): 95 | Pre-emerge herbicidal activity, phytotoxicity rating CASOB ([7]; 63 g ai/ha): 20 | Pre-emerge herbicidal activity, phytotoxicity rating CASOB ([7]; 250 g ai/ha): 20 | Pre-emerge herbicidal activity, phytotoxicity rating ABUTH ([8]; 63 g ai/ha): 50 | Pre-emerge herbicidal activity, phytotoxicity rating ABUTH ([8]; 250 g ai/ha): 80 | Post-emerge Herbicidal Activity, phytotoxicity rating ECHCG ([9]; Rate 63 g ai/ha): 85 | Post-emerge Herbicidal Activity, phytotoxicity rating ECHCG ([9]; Rate 250 g ai/ha): 99 | Post-emerge Herbicidal Activity, phytotoxicity rating SETVI ([10]; Rate 63 g ai/ha): 30 | Post-emerge Herbicidal Activity, phytotoxicity rating SETVI ([10]; Rate 250 g ai/ha): 65 | Post-emerge Herbicidal Activity, phytotoxicity rating IPOHE ([11]; Rate 63 g ai/ha): 50 | Post-emerge Herbicidal Activity, phytotoxicity rating IPOHE ([11]; Rate 250 g ai/ha): 60 | Post-emerge Herbicidal Activity, phytotoxicity rating CHEAL ([12]; Rate 63 g ai/ha): 100 | Post-emerge Herbicidal Activity, phytotoxicity rating CHEAL ([12]; Rate 250 g ai/ha): 100 | Post-emerge Herbicidal Activity, phytotoxicity rating DIGSA ([13]; Rate 63 g ai/ha): 75 | Post-emerge Herbicidal Activity, phytotoxicity rating DIGSA ([13]; Rate 250 g ai/ha): 95 | Post-emerge Herbicidal Activity, phytotoxicity rating AMARE ([14]; Rate 63 g ai/ha): 100 | Post-emerge Herbicidal Activity, phytotoxicity rating AMARE ([14]; Rate 250 g ai/ha): 100 | Post-emerge Herbicidal Activity, phytotoxicity rating CASOB ([15]; Rate 63 g ai/ha): 50 | Post-emerge Herbicidal Activity, phytotoxicity rating CASOB ([15]; Rate 250 g ai/ha): 100 | Post-emerge Herbicidal Activity, phytotoxicity rating ABUTH ([16]; Rate 63 g ai/ha): 80 | Post-emerge Herbicidal Activity, phytotoxicity rating ABUTH ([16]; Rate 250 g ai/ha): 100

From patent publication US6355799B1, “Substituted benzene compounds, process for their preparation, and herbicidal and defoliant compositions containing them” (ISK Americas Incorporated, priority 1997, dated 2002)
